Laboratory results published in patent US8357350B2, “Annulus fibrosus detection in intervertebral discs using molecular imaging agents” (General Electric Company, priority 2009, dated 2013).

Key:
[1] = Absorbance and fluorescence spectra of FM fluorophores in solvents; assay type: physicochemical
Protocol: Absorbance and fluorescence spectra of the FM fluorophores were measured in PBS and absolute methanol (MeOH) using fiber-optic HR2000 (200-1100 nm) and USB2000FL (350-1000 nm) spectrometers (Ocean Optics, Dunedin, Fla.), respectively. Fluorescence excitation was provided by a 2 mW, 532 nm laser diode. The fluorescence and absorbance spectra of FORMULA II and FORMULA IA were collected in dimethyl sulfoxide (DMSO) and fetal bovine serum (FBS), as well as MeOH and PBS. The quantum yield of FORMULA II and FORMULA IA in DMSO, MeOH, FBS and PBS was measured by comparing the integrated fluorescence emission of the fluorophores in each solvent to the emission of Alexa Fluor 555 (Invitrogen) in PBS (quantum yield=10%) as a reference standard under conditions of matched absorbance at the excitation wavelength. The LogD of each FM fluorophore at pH 7.5 was calculated using Marvin 5.0.3 software (ChemAxon, Budapest, Hungary).

intervertebral discs = test: Two-wavelength imaging of resected spine with Pam800 and FORMULA IA; assay type: in vivo, Sprague-Dawley rat; settings: rat
Protocol: Imaging was carried out at near infrared wavelenghts using a 400- to 700-nm “white” light (0.5 mW/cm^2) and a 725- to 775-nm NIR fluorescence excitation light (5 mW/cm^2). Fluorescence images were collected using exposure times ranging from 500 to 2000 msec. All images collected for comparison between vehicle-injected control animals and FM fluorophore-injected animals had the same exposure time and normalization. Color video images were collected on a separate optical channel using custom designed software. The excitation and emission LEDs and filter used for the FM fluorophores and Pam800 in the intraoperative imaging system are described as follows. For fluorescence excitation of FM 1-43, FM 2-10, FM 1-43FX and Formula IA, sixty 5-mm 470 nm LEDs (Epitex, Inc., Kyoto, Japan) fitted with 470±20 nm band pass (BP) excitation filters (Chroma Technology, Rockingham, Vt.) in custom holders were used, which produced a fluence rate on the imaging surface of 0.56 mW/cm^2. For fluorescence excitation of Formula II, FM 4-64, FM 4-64FX and FM 5-95, sixty 5-mm 535 nm LEDs fitted with 525±25 nm BP excitation filters were used, which produced a fluence rate on the imaging surface of 0.34 mW/cm^2. A 610±38 nm BP filter was used to detect fluorescence emission of FM 1-43, FM 2-10, Formula II, FM 1-43FX and Formula IA. […]

- Em nm (MeOH) ([1]; emission maximum in MeOH): 624 nm
- Em nm (PBS) ([1]; emission maximum in PBS): 628 nm
- Ex nm (MeOH) ([1]; excitation maximum in MeOH): 510 nm
- Ex nm (PBS) ([1]; excitation maximum in PBS): 497 nm
SMILES: CCCCN(CCCC)c1ccc(/C=C/c2cc[n+](CCC[N+](C)(C)C)cc2)cc1.[Br-].[Br-] [Formula IA, (E)-4-(4-(dibutylamino)styryl)-1-(3-(trimethylammonio)propyl)pyridinium dibromide]
- overlap of signals with Pam800 (bone) (intervertebral discs; 7.5 nmol Pam800 16 h and 2 mg/kg Formula IA 4 h post-IV): no overlap
- specificity of fluorescence signal in the spine (intervertebral discs; 2 mg/kg IV, 4 h, sagittal spine and disc cross-section): specific for the intervertebral discs
